Test results reported in PubChem BioAssay AID180 (DTP/NCI, 2004).
Where “and” joins values, the source holds several entries; their conditions need not be identical. Identical values can stand only once.

Tested on: BDF1 mice, Adenocarcinoma 755 s.c., tumor weight T/C
Assay: NCI In Vivo Anticancer Drug Screen. Data for tumor model Adenocarcinoma 755 (subcutaneous) in B6D2F1 (BDF1) mice
Details: endpoint: mean tumor weight, higher = larger tumour
Protocol: The antitumor activity of compounds was measured in mice bearing transplantable tumors. Survival or tumor size were measured and the results are expressed as the measurement made in the treated group (T) divided by the measurement made in the vehicle treated control group (C). The tumor model used in this assay is Adenocarcinoma 755 (subcutaneous) in B6D2F1 (BDF1) mice

[1] = dose: 25.0 mg/kg/injection, schedule: Q01DX011 (ip), vehicle: methylcellulose (MC)
[2] = dose: 75.0 mg/kg/injection, schedule: Q01DX011 (ip), vehicle: methylcellulose (MC)
[3] = dose: 120.0 mg/kg/injection, schedule: Q01DX011 (ip), vehicle: methylcellulose (MC)
[4] = dose: 37.5 mg/kg/injection, schedule: Q01DX011 (ip), vehicle: methylcellulose (MC)
[5] = dose: 60.0 mg/kg/injection, schedule: Q01DX011 (ip), vehicle: methylcellulose (MC)

NC(=O)c1cn(C2OC(CO)C(O)C2O)c2ncnc(N)c12 (centres undefined)
T/C (dose: 0.12 mg/kg/injection, schedule: Q01DX011 (ip), vehicle: carboxymethylcellulose (CMC)): 71 % of control
T/C (dose: 0.25 mg/kg/injection, schedule: Q01DX011 (ip), vehicle: carboxymethylcellulose (CMC)): 54 % of control
T/C (dose: 0.5 mg/kg/injection, schedule: Q01DX011 (ip), vehicle: carboxymethylcellulose (CMC)): 51 % of control

Fc1cccc(CSc2ncnc3c2ncn3C2CCCS2)c1 (centres undefined)
T/C [1]: 61 % of control
T/C [2]: 62 % of control
T/C (dose: 225.0 mg/kg/injection, schedule: Q01DX011 (ip), vehicle: methylcellulose (MC)): 32 % of control

On1cnc(=S)c2[nH]cnc21
T/C (dose: 125.0 mg/kg/injection, schedule: Q01DX011 (ip), vehicle: carboxymethylcellulose (CMC)): 5 % of control

COC1C(OC(N)=O)C(O)C(Oc2ccc3c(O)c(NC(=O)c4ccc(O)c(CC=C(C)C)c4)c(=O)oc3c2C)OC1(C)C (centres undefined)
T/C (dose: 50.0 mg/kg/injection, schedule: Q01DX011 (ip), vehicle: saline): 78 % of control
T/C (dose: 100.0 mg/kg/injection, schedule: Q01DX011 (ip), vehicle: saline): 42 % of control
T/C (dose: 200.0 mg/kg/injection, schedule: Q01DX011 (ip), vehicle: saline): 60 % of control

O=S(=O)(NCc1ccccn1)c1ncnc2nc[nH]c12
T/C (dose: 12.0 mg/kg/injection, schedule: Q01DX011 (ip), vehicle: carboxymethylcellulose (CMC)): 119 % of control
T/C (dose: 25.0 mg/kg/injection, schedule: Q01DX011 (ip), vehicle: carboxymethylcellulose (CMC)): 101 % of control
T/C (dose: 50.0 mg/kg/injection, schedule: Q01DX011 (ip), vehicle: carboxymethylcellulose (CMC)): 99 % of control

CN1CCC(CN2c3ccccc3Sc3ccccc32)CC1
T/C [3]: 23 % of control

C[N+](C)(C)c1nc(N)nc2c1ncn2C1OC(CO)C(O)C1O (centres undefined)
T/C (dose: 30.0 mg/kg/injection, schedule: Q01DX011 (ip), vehicle: saline): 114 % of control
T/C (dose: 60.0 mg/kg/injection, schedule: Q01DX011 (ip), vehicle: saline): 101 % of control
T/C (dose: 120.0 mg/kg/injection, schedule: Q01DX011 (ip), vehicle: saline): 52 % of control
T/C (dose: 240.0 mg/kg/injection, schedule: Q01DX011 (ip), vehicle: saline): 24 % of control
T/C (dose: 400.0 mg/kg/injection, schedule: Q01DX011 (ip), vehicle: saline): 3 % of control

CCSc1nc(N)nc2c1ncn2C1OC(CO)C(O)C1O (centres undefined)
T/C (dose: 9.3 mg/kg/injection, schedule: Q01DX011 (ip), vehicle: methylcellulose (MC)): 55 % of control
T/C (dose: 18.7 mg/kg/injection, schedule: Q01DX011 (ip), vehicle: methylcellulose (MC)): 39 % of control
T/C [4]: 3 % of control
T/C [2]: 4 % of control

[I][Hg][CH2]C1COC([CH2][Hg][I])CO1 (centres undefined)
T/C (dose: 0.8 mg/kg/injection, schedule: Q#A X022 (ip), vehicle: carboxymethylcellulose (CMC)): 96 % of control
T/C (dose: 1.25 mg/kg/injection, schedule: Q#A X022 (ip), vehicle: carboxymethylcellulose (CMC)): 43 % of control
T/C (dose: 1.9 mg/kg/injection, schedule: Q#A X022 (ip), vehicle: carboxymethylcellulose (CMC)): 84 % of control
T/C (dose: 2.85 mg/kg/injection, schedule: Q#A X022 (ip), vehicle: carboxymethylcellulose (CMC)): 35 % of control and 50 % of control
T/C (dose: 2.9 mg/kg/injection, schedule: Q01DX006 (iv), vehicle: carboxymethylcellulose (CMC)): 154 % of control
T/C (dose: 4.3 mg/kg/injection, schedule: Q#A X022 (ip), vehicle: carboxymethylcellulose (CMC)): 36 % of control
T/C (dose: 4.4 mg/kg/injection, schedule: Q01DX006 (iv), vehicle: carboxymethylcellulose (CMC)): 90 % of control
T/C (dose: 6.5 mg/kg/injection, schedule: Q#A X022 (ip), vehicle: carboxymethylcellulose (CMC)): 23 % of control
T/C (dose: 6.6 mg/kg/injection, schedule: Q01DX006 (iv), vehicle: carboxymethylcellulose (CMC)): 95 % of control
T/C (dose: 10.0 mg/kg/injection, schedule: Q01DX006 (iv), vehicle: carboxymethylcellulose (CMC)): 78 % of control
T/C (dose: 22.0 mg/kg/injection, schedule: Q03DX004 (ip), vehicle: carboxymethylcellulose (CMC)): 62 % of control
T/C (dose: 24.0 mg/kg/injection, schedule: Q01DX011 (oral), vehicle: carboxymethylcellulose (CMC)): 71 % of control
T/C (dose: 25.0 mg/kg/injection, schedule: Q01DX011 (oral), vehicle: methylcellulose (MC)): 75 % of control
T/C (dose: 35.0 mg/kg/injection, schedule: Q01DX001 (ip), vehicle: carboxymethylcellulose (CMC)): 96 % of control
T/C (dose: 35.0 mg/kg/injection, schedule: Q01DX011 (oral), vehicle: carboxymethylcellulose (CMC)): 92 % of control
T/C (dose: 35.0 mg/kg/injection, schedule: Q03DX004 (ip), vehicle: carboxymethylcellulose (CMC)): 69 % of control
T/C (dose: 35.0 mg/kg/injection, schedule: Q07DX002 (ip), vehicle: carboxymethylcellulose (CMC)): 77 % of control
T/C (dose: 50.0 mg/kg/injection, schedule: Q01DX011 (oral), vehicle: methylcellulose (MC)): 86 % of control
T/C (dose: 50.0 mg/kg/injection, schedule: Q03DX004 (ip), vehicle: carboxymethylcellulose (CMC)): 51 % of control
T/C (dose: 55.0 mg/kg/injection, schedule: Q01DX011 (oral), vehicle: carboxymethylcellulose (CMC)): 81 % of control
T/C [5]: 15 % of control
T/C (dose: 80.0 mg/kg/injection, schedule: Q01DX011 (oral), vehicle: carboxymethylcellulose (CMC)): 78 % of control
T/C (dose: 85.0 mg/kg/injection, schedule: Q01DX001 (ip), vehicle: carboxymethylcellulose (CMC)): 89 % of control
T/C (dose: 100.0 mg/kg/injection, schedule: Q01DX011 (oral), vehicle: methylcellulose (MC)): 74 % of control
T/C [3]: 60 % of control
T/C (dose: 160.0 mg/kg/injection, schedule: Q01DX011 (im), vehicle: carboxymethylcellulose (CMC)): 36 % of control
T/C (dose: 160.0 mg/kg/injection, schedule: Q01DX011 (sc), vehicle: carboxymethylcellulose (CMC)): 42 % of control
T/C (dose: 240.0 mg/kg/injection, schedule: Q01DX011 (sc), vehicle: carboxymethylcellulose (CMC)): 8 % of control
T/C (dose: 360.0 mg/kg/injection, schedule: Q01DX011 (im), vehicle: carboxymethylcellulose (CMC)): 10 % of control

O=C(CCCl)N1CCc2ccccc2C1
T/C (dose: 25.0 mg/kg/injection, schedule: Q01DX011 (sc), vehicle: olive oil, sesame oil, peanut oil): 71 % of control
T/C (dose: 75.0 mg/kg/injection, schedule: Q01DX011 (sc), vehicle: olive oil, sesame oil, peanut oil): 99 % of control

NC1(C(=O)O)CCCC1
T/C (dose: 4.45 mg/kg/injection, schedule: Q01DX011 (ip), vehicle: carboxymethylcellulose (CMC)): 71 % of control
T/C (dose: 7.5 mg/kg/injection, schedule: Q01DX011 (ip), vehicle: methylcellulose (MC)): 61 % of control
T/C (dose: 8.9 mg/kg/injection, schedule: Q01DX011 (ip), vehicle: carboxymethylcellulose (CMC)): 70 % of control
T/C (dose: 13.12 mg/kg/injection, schedule: Q01DX011 (ip), vehicle: carboxymethylcellulose (CMC)): 42 % of control
T/C (dose: 14.24 mg/kg/injection, schedule: Q01DX011 (ip), vehicle: carboxymethylcellulose (CMC)): 83 % of control
T/C (dose: 15.0 mg/kg/injection, schedule: Q01DX011 (ip), vehicle: methylcellulose (MC)): 96 % of control
T/C (dose: 16.0 mg/kg/injection, schedule: Q01DX011 (ip), vehicle: saline): 43 % of control
T/C (dose: 18.0 mg/kg/injection, schedule: Q01DX011 (ip), vehicle: methylcellulose (MC)): 40 % of control
T/C (dose: 23.73 mg/kg/injection, schedule: Q01DX011 (ip), vehicle: carboxymethylcellulose (CMC)): 55 % of control
T/C (dose: 30.0 mg/kg/injection, schedule: Q01DX011 (ip), vehicle: methylcellulose (MC)): 12 % of control
T/C (dose: 31.3 mg/kg/injection, schedule: Q01DX011 (ip), vehicle: saline): 13 % of control
T/C (dose: 35.6 mg/kg/injection, schedule: Q01DX011 (ip), vehicle: carboxymethylcellulose (CMC)): 33 % of control and 38 % of control
T/C [4]: 16 % of control
T/C (dose: 42.0 mg/kg/injection, schedule: Q01DX011 (ip), vehicle: carboxymethylcellulose (CMC)): 31 % of control
T/C (dose: 42.0 mg/kg/injection, schedule: Q01DX011 (oral), vehicle: saline): 10 % of control
T/C (dose: 52.5 mg/kg/injection, schedule: Q01DX011 (ip), vehicle: carboxymethylcellulose (CMC)): 8 % of control and 14 % of control
T/C [5]: 12 % of control
T/C (dose: 62.5 mg/kg/injection, schedule: Q01DX011 (ip), vehicle: saline): 6 % of control
T/C (dose: 63.0 mg/kg/injection, schedule: Q01DX011 (oral), vehicle: saline): 4 % of control
T/C (dose: 70.0 mg/kg/injection, schedule: Q01DX011 (ip), vehicle: carboxymethylcellulose (CMC)): 4 % of control
T/C (dose: 95.0 mg/kg/injection, schedule: Q01DX011 (oral), vehicle: saline): 1 % of control
T/C (dose: 105.0 mg/kg/injection, schedule: Q01DX011 (ip), vehicle: carboxymethylcellulose (CMC)): 3 % of control and 6 % of control

O=C(C1C(c2ccccc2)N1Cc1ccccc1)C1C(c2ccccc2)N1Cc1ccccc1 (centres undefined)
T/C [1]: 47 % of control
T/C (dose: 50.0 mg/kg/injection, schedule: Q01DX011 (ip), vehicle: methylcellulose (MC)): 77 % of control
T/C (dose: 100.0 mg/kg/injection, schedule: Q01DX011 (ip), vehicle: methylcellulose (MC)): 66 % of control
